Marks after values point to notes of the source that are not given here. Non-standard residues stand in square brackets, D forms with d. Residues, ends and D or L forms follow the SMILES beside them. *: point of attachment. X1 = CC1(C)C(=CC=CC=CC=CC2=[N+](CCCCCC(=O)*)c3ccc4ccccc4c3C2(C)C)N(CCCCS(=O)(=O)[O-])c2ccc3ccccc3c21; Cha = N[C@@H](CC1CCCCC1)C(=O)O
Experiments:
[1] = test system: oral and oropharyngeal squamous cell carcinoma (OSCC, OPSCC); assay: Intraoperative near-infrared optical imaging: tumor-to-background ratio and absolute intensities (Elevision); format: in vivo, human; conditions: for TBR (mean (range)): preoperative NIR image, max tumor ROI / mean of 3 background ROIs, Elevision, 805 nm
Description: (§1) All patients were treated surgically according to the national guidelines. The primary investigator (PI) was part of the surgical team in all procedures. A surgical robot system (DaVinci Si, Intuitive) was used for TORS in the two patients with OPSCC. The surgeons were not allowed to resect tissue based on intraoperative detected fluorescence signal but complied with standard of care. Depending on the clinical TNM staging (based on clinical examination, ultrasonography examination of the neck, and MRI or CT scans), either sentinel lymph node biopsy (using 99^mTc-nanocoll) or neck dissection was performed for neck management. Post-surgical (chemo)radiation was prescribed according to national guidelines at a multidisciplinary conference. The pre-, intraoperative, and ex-vivo optical images were obtained using the open-field imaging system Elevision® model VS3 Iridium-Visionsense Infrared (IR) Fluorescence, Vision System (Medtronics, USA). Image profile: NIR_highcontrast or NIR_contrast, excitation laser: 805 nm. The Elevision IR system generates real-time optical imaging merged with the color video recording on a viewer screen. The intensity-dependent multi-color NIR overlay was presented in parallel with white-light and NIR grayscale images. The camera head was mounted on a maneuverable arm over the surgical field with sterile draping. The preferred camera-to-tumor distance was 20-40 centimeters, but the system also allows positioning at closer or longer distances to areas of interest. For optimal imaging, all other light sources in the OR were switched off and window blinds were closed. The imaging system itself provides powerful white light illumination of the surgical field when imaging is performed.
All images and videos were stored in JPG- and mp4-file format. The following images were captured for all 16 patients who completed the trial: 1) Preoperative images of the tumor. 2) Intraoperative images of the tumor and metastatic lymph nodes. 3) Images of the surgical cavity (i.e., tumor bed) after tumor resection. 4) Ex-vivo images of the resected tumor specimen on the back-table, see Figure 2.
For imaging analysis, the TBR was calculated as the maximum fluorescence intensity of the tumor region of interest (ROI) divided by the mean fluorescence intensity of 3 background ROIs on a preoperative NIR image by use of an in-house designed Python-based annotation tool. The tumor ROIs were drawn based on information from intraoperative clinical observations, and preoperative white-light and NIR images. Background ROIs were defined within the soft tissues adjacent to the tumor. The absolute numeric intensities were obtained by adjusting the fluorescence intensity for the specific gain values applied by the imaging system.

[2] = test system: neck lymph node metastasis; assay: Optical visualization of neck lymph node metastasis; format: in vivo, human
Description: as §1
The exploratory endpoints were defined as: 1) Morphological co-localization between optical signal, tumor tissue, and target (i.e. uPAR) expression, 2) Optical visualization of local neck lymph node metastasis, and 3) Longitudinal investigation of the optimal signal intensity for intraoperative imaging.

[3] = test system: oral and oropharyngeal squamous cell carcinoma (OSCC, OPSCC); assay: Longitudinal preoperative transoral imaging of the tumors; format: in vivo, human
Description: For 3 out of the 16 patients, longitudinal preoperative imaging of their tumors was captured during the period before surgery. […] Minor deviations from the protocol requirements were due to prioritization of the patients' night sleep before surgery - therefore, no images were taken in the timespan between 8 and 14 hrs post-injection. All longitudinal images were captured with the same camera-to-tumor distance (app. 25-35 cm) in a darkened room. The TBR value was calculated for all time points and plotted as a function of time, see Figure 4 for a case example.

clinical = assay: clinical
Description: The blood samples were collected in Vacuette® 3 mL K2E K2EDTA vacutainer blood collection tubes, centrifuged (2500 rpm for 10 min at 4 °C), and the plasma was stored in a -20 °C freezer. Plasma concentrations were measured based on liquid chromatography with tandem mass spectrometric detection (LC-MS/MS) validated according to good laboratory practice (GLP), (LabCorp, Huntingdon, UK). The PK analysis was performed using a non-compartmental analysis method. […] The terminal phase half-life (T½) was calculated using terminal phase rate constant, which resulted from linear regression of the terminal linear portion of the log-concentration vs. time curve.
The primary endpoint was the sensitivity for detection of oral and oropharyngeal cancer verified by histology. The secondary endpoints were divided into efficacy and safety & tolerability. Regarding efficacy, the TBR and intraoperative tumor signal intensity were endpoints. The pharmacokinetics profile determined by a non-compartmental analysis was specified by peak plasma concentration, time of peak plasma concentration, the area under the plasma concentration-time curve from time-zero extrapolated to infinity, and terminal half-life. The safety & tolerability were assessed with adverse event monitoring, laboratory parameters, ECGs, vital signs, and physical examinations.

Question: For `CC(C)C[C@H](NC(=O)[C@H](Cc1ccc(O)cc1)NC(=O)[C@@H](CCCNC(=N)N)NC(=O)[C@@H](CO)NC(=O)[C@H](Cc1ccccc1)NC(=O)[C@H](CC1CCCCC1)NC(=O)[C@H](CC(=O)O)NC(=O)[C@H](CCC(=O)O)NC(=O)[C@H](CCC(=O)O)NC(=O)CCCCC[N+]1=C(C=CC=CC=CC=C2N(CCCCS(=O)(=O)[O-])c3ccc4ccccc4c3C2(C)C)C(C)(C)c2c1ccc1ccccc21)C(=O)N[C@@H](Cc1c[nH]c2ccccc12)C(=O)N[C@@H](CO)C(=O)O` [FG001, ICG-Glu-Glu-AE105] (X1-EED[Cha]F[dS][dR]YLWS-OH; N-terminus and C-terminus assumed), which “TBR (mean (range))” value ([1]; FG001 4 mg i.v., n = 4 completed) is on record?
Answer: 3.07 (2.30 - 3.48)*

Question: What about the “TBR (mean (range))” value ([1]; FG001 16 mg i.v., n = 8) of the same compound?
Answer: 2.91 (2.02 - 3.95)

Question: What about the “TBR (mean (range))” value ([1]; FG001 36 mg i.v., n = 4) of the same compound?
Answer: 3.08 (2.68 - 3.46)

Question: And the “TBR (contrast for demarcation of tumors), consistently” value ([1]; all patients, even at the lowest dose)?
Answer: above 2

Question: And the “Intraoperative visualization of clinical neck metastasis” value ([2]; during neck dissection, confirmed on back table and by pathology)?
Answer: clearly visualized

Question: What about the “Uptake in adjacent unaffected lymph nodes” value ([2]; no systematic imaging of lymph nodes without clinical evidence of metastasis) of the same compound?
Answer: No uptake

Question: And the “Optical signal of harvested sentinel nodes” value ([2]; two cases with SNB staging, nodes all negative for metastatic deposits on final pathology)?
Answer: absent or weak optical signal

Question: What about the “Time post-injection after which tumor-specific signals could be detected” value ([3]; FG001 16 mg i.v., three awake patients, transoral) of the same compound?
Answer: 2 h

Question: What about the “TBR in longitudinal imaging” value ([3]; FG001 16 mg i.v., three awake patients, transoral, from 2 hrs until 19 hrs post-injection) of the same compound?
Answer: above 2

Question: What about the “Window for drug administration prior to surgery” value ([3]; indicated by the longitudinal data for tumor imaging) of the same compound?
Answer: 2 to 19 h

Question: And the “Extrapolation to AUC from 0 to infinity (AUC0-inf)” value (clinical; all patients with a valid terminal phase)?
Answer: < 25%

Question: And the “Mean half-life of FG001” value (clinical; human plasma, based on the plasma concentration measurements, all evaluable patients)?
Answer: approximately 12 hours

Question: And the “Maximum concentration (mean (SD))” value (clinical; human plasma, single 4 mg i.v. dose, n = 4, LC-MS/MS)?
Answer: 577 (373)* ng/mL

Question: And the “Time of peak plasma concentration” value (clinical; human plasma, single i.v. dose, first sample at 1 hr ± 15 min)?
Answer: within the first hour

Question: And the Tmax (clinical; human, plasma, iv)?
Answer: 1 h

Question: And the Cmax (clinical; human, plasma, iv, 16 mg)?
Answer: 4300 ng/mL

Question: And the Cmax (clinical; human, plasma, iv, 36 mg)?
Answer: 8130 ng/mL

Question: And the half-life (clinical; human, plasma, iv, 36 mg)?
Answer: 11.2 h

Question: What about the “Time of peak plasma concentration, one outlier” value (clinical; one patient in the 4 mg group) of the same compound?
Answer: 12.8 h
